From patent US20240124488A1, “AZA-CRYPTOPHANES, PROCESSES FOR PREPARATION THEREOF, AND THEIR USES” (UNIVERSITE DE CAEN NORMANDIE, priority 2021, published 2024)
Values joined by “and” are separate entries in the source; they are usually repeats but may differ in a detail not shown here. Equal values may be shown once. Read-outs that look alike come from different tables or passages of the source.

Legend:
[1] = Cavity size by X-ray crystallography; assay type: physicochemical; conditions: crystals by slow evaporation in dichloromethane at 4° C.
Method: Crystallographic data of both anti and syn cryptophanes 1N were obtained by slow evaporation in dichloromethane at 4° C. The anti compound has a cavity size of 137.0 Å^3 and the syn compound has a cavity size of 121.4 Å^3, both larger than the size of the prior art cryptophane C (114.5 Å^3).
Anti cryptophanes 1N crystals were also obtained by slow evaporation in anisole, which is too large to enter the cage. This enabled to visualise the conformation of the cryptophane 1N and the size of its cavity without caged compound. The size of the empty cavity is between 85.4 and 86.8 Å^3.

[2] = 129Xe NMR xenon encapsulation; assay type: binding; conditions: 5 bars, CDCl3, 278 K
Excerpt: FIG. 1 illustrates the ^129Xe NMR spectrum (5 bars, CDCl3) of cryptophane-1N 12.
^129Xe NMR (5 bars, CDCl3): illustrated in FIG. 1.

physchem = conditions: organic solvent or mixture
Excerpt: (§1) Experimental Solubility of Cryptophane a (Conventional Cryptophane Outside the Invention)
(§2) Experimental Solubility of Cryptophane-1N

[3] = Encapsulation efficiency by UV spectrophotometry; assay type: physicochemical
Method: Cryptophanes concentration were defined using spectrophotometry (Infinite M200, Tecan, Mannedorf, Switzerland) by determining absorbance spectrum of Crytophane in solution in MeOH.
The encapsulation efficiency (EE) was determined after filtration through 0.2 μm syringe filters (Minisart® Syringe Filter, Sartorius, Goettingen, Germany) to remove unentrapped cryptophanes. Then, these samples were diluted in methanol (1/100, v/v) and the concentration of cryptophane was determined by spectrophotometry at 288 nm. The EE was determined in duplicate and calculated as follows: […]
A UV calibration curve for each of the compounds was carried out (see protocol above) using a stock solution of Cr1N in acetonitrile (1.05 mg/mL) and a stock solution of cryptophane A in DMSO (1.85 mg/mL), solutions subsequently diluted in methanol.
The batch of nanoemulsions loaded with Cr1N was diluted 100-fold in methanol. Under these conditions, it was confirmed by DLS that the nanoemulsions were destroyed. The amount of cryptophane in this sample was then determined. The concentration of cryptophane in the sample was 28 μM, i.e. an encapsulation efficiency of 60%.

[4] = prior art cryptophane; cited from earlier work
[5] = Experimental solubility in organic solvents
Excerpt: as §1, §2

Compound: COc1cc2c3cc1OCCOc1ccc4c(c1)Cc1ccc5cc1Nc1ccc(cc1C4)OCCOc1cc(c(cc1OC)C3)Cc1cc(OC)c(cc1C2)OCCO5 [Cryptophane-1N]
- cavity size [1]: 137.0 Å^3
- Xenon encapsulation [2]: successfully encapsulate xenon
- solubility (physchem; Experimental solubility in CHCl3): > 8.27 mM
- solubility (physchem; Experimental solubility in DMSO): > 59500 µg/mL and > 73800 µM
- solubility (physchem; Experimental solubility in MeCN): > 2.23 mM
- amount loaded into nanoemulsions relative to cryptophane A [3]: more than twice as much

Compound: cryptophane C
- cavity size [4]: 114.5 Å^3

Compound: COc1cc2c3cc1OCCOc1ccc4c(c1)Cc1ccc5cc1Nc1ccc(cc1C4)OCCOc1cc(c(cc1OC)Cc1cc(c(OC)cc1C3)OCCO5)C2 [Cryptophane-1N Syn]
- cavity size [1]: 121.4 Å^3

Compound: COc1cc2c3cc1OCCOc1cc4c(cc1OC)Cc1cc5c(OC)cc1Cc1cc(c(OC)cc1C4)OCCOc1cc(c(cc1OC)C3)Cc1cc(OC)c(cc1C2)OCCO5 [Cryptophane A]
- Experimental solubility in MeCN [5]: very poorly soluble
